These results are taken from patent publication CN105267200A, “一种黄酮类化合物的应用” (Shanghai Institute of Organic Chemistry of CAS, priority 2014, dated 2016).

For this test, the target named is T1, mTORC1 (Homo sapiens, UniProt P42345).
T1 construct: purchased sigma试剂有限公司 (Sigma) SRP0364
Briefly: mTORC1 enzyme activity inhibition (phosphorylation of 5-FAM substrate peptide STTPGGTLFSTTPG), capillary electrophoresis with laser-induced fluorescence. The format is biochemical. The following applies: mTORC1 31.1 nM, substrate peptide 2 μM, 20 min; for inhibition at 1.25 µM: compound 1.25 μM, read-out: inhibition of the catalytic activity of mTORC1.

T1 sequence (P42345 1362-2549 limits assumed): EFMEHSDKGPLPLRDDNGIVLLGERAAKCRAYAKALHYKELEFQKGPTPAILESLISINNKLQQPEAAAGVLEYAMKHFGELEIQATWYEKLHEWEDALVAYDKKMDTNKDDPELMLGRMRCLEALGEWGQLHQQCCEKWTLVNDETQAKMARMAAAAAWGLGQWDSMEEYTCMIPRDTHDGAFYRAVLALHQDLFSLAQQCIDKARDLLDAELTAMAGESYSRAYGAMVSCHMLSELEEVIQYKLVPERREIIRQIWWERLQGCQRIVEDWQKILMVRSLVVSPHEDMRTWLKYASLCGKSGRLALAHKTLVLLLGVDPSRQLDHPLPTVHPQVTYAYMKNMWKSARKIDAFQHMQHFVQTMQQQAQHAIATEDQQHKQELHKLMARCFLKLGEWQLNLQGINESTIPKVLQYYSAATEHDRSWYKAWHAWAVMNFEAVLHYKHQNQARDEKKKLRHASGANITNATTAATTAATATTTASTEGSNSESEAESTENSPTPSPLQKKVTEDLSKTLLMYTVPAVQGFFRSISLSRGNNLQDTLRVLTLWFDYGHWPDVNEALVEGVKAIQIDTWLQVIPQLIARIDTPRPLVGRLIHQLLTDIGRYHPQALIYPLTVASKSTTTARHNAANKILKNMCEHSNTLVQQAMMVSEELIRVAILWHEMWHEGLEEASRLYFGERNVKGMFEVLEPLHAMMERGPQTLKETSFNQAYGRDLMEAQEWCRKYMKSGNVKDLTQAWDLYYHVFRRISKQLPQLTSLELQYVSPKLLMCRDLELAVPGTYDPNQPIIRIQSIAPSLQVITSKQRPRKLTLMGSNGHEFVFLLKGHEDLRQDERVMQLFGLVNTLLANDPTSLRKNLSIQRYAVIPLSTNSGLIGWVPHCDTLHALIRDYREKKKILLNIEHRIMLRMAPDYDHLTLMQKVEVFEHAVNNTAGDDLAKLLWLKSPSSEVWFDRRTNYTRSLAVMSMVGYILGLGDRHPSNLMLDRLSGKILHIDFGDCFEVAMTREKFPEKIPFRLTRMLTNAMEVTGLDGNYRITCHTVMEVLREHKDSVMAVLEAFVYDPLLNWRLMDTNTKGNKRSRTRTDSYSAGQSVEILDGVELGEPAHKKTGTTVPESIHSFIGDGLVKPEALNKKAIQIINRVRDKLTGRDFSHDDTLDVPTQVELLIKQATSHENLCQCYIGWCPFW

The inhibition is how much of the control response was suppressed. Take `O=c1c(O[C@@H]2O[C@H](CO)[C@H](O)[C@H](O)[C@H]2O)c(-c2ccc(O)c(O)c2)oc2cc(O)cc(O)c12` [金丝桃苷, reference compound]: the inhibition at 1.25 µM worked out at 25%.
For the compound `O=c1cc(-c2ccccc2)oc2cc(O)c(O)c(O)c12` [黄芩素, reference compound], the inhibition at 1.25 µM is 25%.
In general, IC50 refers to the midpoint of a concentration-inhibition curve. In turn, `O=c1c(O)c(-c2ccc(O)c(O)c2)oc2cc(O)cc(O)c12` [槲皮素] yielded an IC50 (nonlinear fit Origin 8.0) of 377 nM. The inhibition percentage turned out to be 0% (quercetin 0.05 nmol/L); 0% (quercetin 0.5 nmol/L); 0% (quercetin 5 nmol/L); 8% (quercetin 50 nmol/L); 47% (quercetin 250 nmol/L); 53% (quercetin 500 nmol/L). In addition, the inhibition percentage came to 97% (quercetin 5×10^3 nmol/L), 100% (quercetin 5×10^4 nmol/L) and 100% (quercetin 5×10^5 nmol/L). Besides, the “inhibition of mTORC1 phosphorylation of the substrate peptide (in words, electropherogram Fig. 1C)” value (quercetin 0.5 μM, 25℃) is “可以有效抑制”.
